According to US5459256A, “Lipophilic, aminohydrolase-activated prodrugs” (priority 1991, dated 1995):
Like-named read-outs stand apart in the source and are kept apart here.

Columns and labels:
[1] = tested on: HIV-1/IIIB (CD4^+ ATH8 cells); test: HIV cytopathic effect inhibition assay in ATH8 cells (% protection); assay type: cell-based
Method: (§1) HIV Cytopathic Effect Inhibition Assay.
(§2) The HIV cytopathic effect inhibition assay was performed as previously described. (Mitsuya, H. & Broder, S. Proc. Nat. Acad. Sci. USA 1986, 83, 1911) Briefly, 200,000 target CD4^+ ATH8 cells were exposed to cell-free HIV-1/IIIB at a dose of 43 (or 1087 for compound 1g) TCID50 (50% tissue culture infectious dose) for 1 h, resuspended in 2 ml of fresh culture media containing interleukin 2, and cultured at 37° C. with or without test compounds in 5% CO2 -containing humidified air. On day 8 in culture, the viable cells were counted by using the dye exclusion method. All compounds, including inactives, were evaluated a minimum of two times in separate experiments. Data reported in Table II are from representative tests. The % protection against the virus was determined by the following formula: 100 times [(the number of viable cells exposed to HIV-1 and cultured in the presence of the compound minus the number of viable cells exposed to HIV-1 and cultured in the absence of compound) divided by (the number of viable cells cultured alone minus the number of viable cells exposed to HIV-1 and cultured in the absence of the compound)]. The % toxicity of a compound on the target cells was determined by the following formula: 100 times [1 minus (the number of total viable cells cultured in the presence of the compound divided by the number of total viable cells cultured alone)]. Calculated percentages equal to or less than zero are expressed as 0%.
^a ATH8 cells were exposed to HIV1/IIIB per cell for 1 hr and
cultured in the presence of various concentrations of each compound. On
day 8, the total viable cells were counted. Orders of numbers in the
column for concentrations correspond to the orders of numbers in other

CD4^+ ATH8 cells = test: Toxicity on ATH8 target cells (% toxicity, dye exclusion); assay type: cell-based
Method: as §1
as §2, with “(Mitsuya, H. & Broder, S. Proc. Nat. Acad. Sci. USA 1986, 83, 1911) Briefly, 200,000 target CD4^+ ATH8 cells were exposed to cell-free HIV-1/IIIB at a dose of 43 (or 1087 for compound 1g) TCID50 (50% tissue culture infectious dose) for 1 h, resuspended in 2 ml of fresh culture media containing interleukin 2, and cultured at 37° C. with or without test compounds in 5% CO2 -containing humidified air.” left out

[2] = target: T1, adenosine deaminase (adenosine aminohydrolase, EC 3.5.4.4) (Bos taurus, UniProt P56658); test: Enzymatic deamination by adenosine deaminase (HPLC); conditions: for half-life at 50 µM: bovine, adenosine deaminase
T1 sequence (P56658 1-363): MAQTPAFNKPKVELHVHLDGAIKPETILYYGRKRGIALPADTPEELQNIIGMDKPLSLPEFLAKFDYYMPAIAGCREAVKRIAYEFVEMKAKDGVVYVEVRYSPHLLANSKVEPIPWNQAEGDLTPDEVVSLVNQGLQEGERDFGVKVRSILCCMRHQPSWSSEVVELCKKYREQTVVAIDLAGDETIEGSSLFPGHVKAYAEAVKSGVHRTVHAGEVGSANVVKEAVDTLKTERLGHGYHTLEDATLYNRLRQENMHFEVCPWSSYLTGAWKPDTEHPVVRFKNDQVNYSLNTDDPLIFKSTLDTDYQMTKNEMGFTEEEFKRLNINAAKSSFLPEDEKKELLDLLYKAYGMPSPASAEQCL
Method: FIG. 1. Deamination of dideoxyadenosine analogues by adenosine deaminase. Hydrolysis kinetics and 2'-F-dd-ara-I formation during the incubation of 50 μM N^6 -CH3 -2'-F-dd-ara-A (1f) with 0.7 units/mL of adenosine deaminase at 37° C. A unit of adenosine deaminase is the amount of enzyme which hydrolyzes a standard substrate (e.g., adenosine) at the rate of 1.0 μmole/min at 25° C. and pH 7.5. […] Insert: Adenosine deaminase hydrolysis kinetics for 50 μM ddA and 2'-F-dd-ara-A. The hydrolysis curve for ddA has been extrapolated from kinetics obtained with 0.07 units/mL of adenosine deaminase under identical conditions.
A 50 μl aliquot of a 10 mg/ml suspension of adenosine deaminase (adenosine aminohydrolase, EC 3.5.4.4) from calf intestinal mucosa was centrifuged at 600×g for 3 min. The residue remaining after removal of the (NH4)2 SO4 supernatant was dissolved in 0.5 ml pH 7.4 tris(hydroxymethyl)-aminomethane (Tris) buffer to give an enzyme solution of 1 mg/ml (274 units/ml). […] A pH 7.4 buffer was prepared by adjusting 0.01M Tris to pH 7.4 with 0.5N HCl, The 1.0 HCl , HPLC-grade acetonitrile, monobasic potassium phosphate, sodium hydroxide and ultrapure Tris were all commercially available and were used without further purification.
Enzymatic Deamination of Adenosine Analogues. […] A 50 μL aliquot of substrate solution was diluted with 0.95 ml 0.01M Tris buffer in a 1.5-mL Eppendorf tube and equilibrated at 37° C. in a Dubnoff metabolic shaking incubator. Reaction was initiated by addition of 2.5 μL of adenosine deaminase solution (0.7 unit). At specified time intervals, a 50 μL aliquot of the reaction mixture was withdrawn and quenched by mixing with 0.45 mL cold 2 μM 2'-deoxycoformycin. This diluted sample was ultrafiltered to remove enzyme in a Centrifree Micropartition unit by centrifugation at 600×g at 4° C. in a high speed refrigerated centrifuge. The decrease in substrate concentration was monitored by HPLC analysis of the resultant ultrafiltrate (see below). The ability of 2'-deoxycoformycin to inhibit deamination under the above conditions was evaluated by adding 2 μL of 1.0 mM inhibitor to diluted substrate solutions at the time of equilibration. Reaction, sampling and analysis were carried out as above. […] Initial hydrolysis rates for each substrate concentration were measured through linear least-squares curve fitting of the concentration versus time data for reaction of the first 10% of substrate. KM and vmax values for each substrate were then determined from a graphical lineweaver-Burke plot of these initial rates (FIG. 1).
HPLC Analysis of Dideoxypurine Nucleosides.
Concentrations of dideoxynucleosides were measured by the HPLC analysis of 100 μL aliquots of ultrafiltered samples. A 4.6×250 mm 5-μm Ultrasphere-ODS column, protected by a Waters guard column packed with 37-50 μm Vydac 201SC, was eluted with 10-20% CH3 CN in 0.01M pH 7.0 phosphate buffer at a flow rate of 1.0 mL/min. Dideoxynucleosides and deamination products were detected at the appropriate wavelength of maximum absorption with a Gilson 116 variable wavelength detector. Peak identity was determined from coincidence of retention times with standards and by comparison of on-the-fly UV spectra obtained with a Perkin-Elmer LC-235 diode array detector. Peak areas and peak heights were measured simultaneously on a Spectra-Physics SP4200 computing integrator.

ADA = conditions: vs ddA, determined previously, slightly different conditions; cited from earlier work
[3] = Octanol-water partition coefficient, microscale shake-flask; conditions: octanol/ph 7.0 buffer
Method: Measurement of Octanol-Water Partition Coefficients.
n-Octanol-water partition coefficients (P) were determined by a microscale shake-flask procedure, (Ford, H. et al Abstracts of Papers, 200th National Meeting of the American Chemical Society, Washington, D.C.; American Chemical Society: Washington, D.C., 1990; CARB 13) which was modification of an earlier method (Nahum, A. & Horvath, C. J. Chromatogr. 1980, 192, 315). A 20 μL aliquot of a 0.5 mg/mL DMSO solution of the dideoxynucleoside was dissolved in 1.0 mL of octanol-saturated, pH 7.0, 0.01M potassium phosphate buffer. This was mixed thoroughly with 1.0 ml of buffer-saturated n-octanol in a 2-mL Mixxor apparatus at 24°-26° C. and then allowed to stand for 15 min. The phases were separated, centrifuged at 600×g for 5 min, and the relative concentration of sample in each phase determined by HPLC analysis of a 50 μl aliquot. The partition coefficient was calculated by dividing the absolute area of the appropriate integrated peak from the octanol phase by that of the buffer phase (Table I).
Octanol/pH 7.0 buffer partition coefficients were determined using a newly developed microscale method. […] The addition of a methyl group normally increases the log P value of a compound by about 0.5.

[4] = tested on: human immunodeficiency virus (HIV); conditions: background statement; cited from earlier work
[5] = Toxicity on ATH8 target cells (% toxicity, dye exclusion); assay type: cell-based; conditions: human, ath8 cells, 10 μM
Method: as §1
as §2, with “(Mitsuya, H. & Broder, S. Proc. Nat. Acad. Sci. USA 1986, 83, 1911) Briefly, 200,000 target CD4^+ ATH8 cells were exposed to cell-free HIV-1/IIIB at a dose of 43 (or 1087 for compound 1g) TCID50 (50% tissue culture infectious dose) for 1 h, resuspended in 2 ml of fresh culture media containing interleukin 2, and cultured at 37° C. with or without test compounds in 5% CO2 -containing humidified air.” left out

[6] = in vivo; cited from earlier work

Nc1ncnc2c1ncn2[C@@H]1O[C@H](CO)C[C@@H]1F [Compound 1a, 2', 3'-dideoxy-2'-fluoroarabinosyladenine, reference compound]
anti-HIV activity with supplementary ADA (in words) ([1]; ATH8 cells, ADA (0.7 U/mL) added): did not change its activity
anti-HIV activity in the presence of dCF (in words) ([1]; ATH8 cells, dCF added): no important changes in the protection
toxicity in the presence of dCF (in words) (CD4^+ ATH8 cells): appeared to be potentiated
% Toxicity (CD4^+ ATH8 cells; human, 11520 min): 11%
half-life at 50 µM [2]: 1.33 min
half-life at 50 µM ([2]; t1/2 of hydrolysis by adenosine deaminase): 1.33 min
vmax ([2]; pH 7.4 and 37° C.): 2.3 × 10^-1 μmol/min/U
hydrolysis by ADA, times slower than ddA ([2]; vs ddA, 50 μM substrate): 17 times slower
hydrolysis by ADA, times slower than ddA (ADA): ca. 10 times slower

O=c1[nH]cnc2c1ncn2[C@@H]1O[C@H](CO)C[C@@H]1F [Compound 1b, 2', 3'-dideoxy-2'-fluoroarabinosylhypoxanthine, reference compound]
logD ([3]; pH 7): -1.21 ± 0.02
deamination product / product formation (in words) ([2]; 0.7 U/mL ADA, 37° C.): the rate of formation of 1b corresponded to the rate of disappearance of 1f
in vitro activity against HIV (in words) [4]: known active inosine analogue

Nc1ncnc2c1ncn2[C@H]1CC[C@@H](CO)O1 [ddA, dideoxyadenosine, reference compound]
logD ([3]; pH 7, Log P): -0.29 ± 0.01
% Protection ([1]; 10 μM, with dCF (5 μm), 11520 min): 86%
inhibition at 10 µM ([1]; Human immunodeficiency virus 1, IIIB, ATH-8, 192 h, 10 μM, without dCF): 100%
cytotoxicity at 192 h, 10 µM ([5]; with dCF (5 μm)): 22%
cytotoxicity at 192 h, 10 µM ([5]; without dCF): 0%
toxicity in the presence of dCF (in words) (CD4^+ ATH8 cells; ATH8 cells, dCF added): appeared to be potentiated
t1/2 of hydrolysis by adenosine deaminase ([2]; 50 μM, extrapolated from 0.07 units/mL ADA to 0.7 units/mL, 37° C.): 0.083 min
half-life at 50 µM [2]: 0.0833 min

Nc1ccn([C@H]2CC[C@@H](CO)O2)c(=O)n1 [ddC, dideoxycytidine, reference compound]
logD ([3]; pH 7, Log P): -1.33 ± 0.01
CNS entry (in words) [6]: failure of ddC to achieve significant CNS levels

Cc1ccc(C(=O)Nc2ccc(S(=O)(=O)O)c3cc(S(=O)(=O)O)cc(S(=O)(=O)O)c23)cc1NC(=O)c1cccc(NC(=O)Nc2cccc(C(=O)Nc3cc(C(=O)Nc4ccc(S(=O)(=O)O)c5cc(S(=O)(=O)O)cc(S(=O)(=O)O)c45)ccc3C)c2)c1 [suramin]
HIV replication in presence of compound (in words) [4]: HIV replication is considerably slower

antimoniotungstate
HIV replication in presence of compound (in words) [4]: HIV replication is considerably slower
